Columns and labels:
PD-1 = experiment: Expression of immune checkpoint PD-1 on cell surface of PHA-activated PBMC (flow cytometry); type: cell-based, human; conditions: 5 μg/ml PHA, 0.01-10 μM, 48 hours
Method: (§1) Gradient centrifugation was used to extract PBMC cells from peripheral blood of healthy people. The PBMC cells were activated with 5 μg/ml PHA (Sigma), and treated with different concentrations of compounds (0, 0.01, 0.1, 1, 3, 10 μM). After 48 hours, the cells and culture supernatants were collected, respectively. Flow cytometry was used to detect the expression of immune checkpoints, PD-1, Tim-3 and Lag-3 on cell surface, and to detect the secretion level of various cytokines (IL-6, IL-10 and TNF-α) in the cell culture supernatants.

Tim-3 = experiment: Expression of immune checkpoint Tim-3 on cell surface of PHA-activated PBMC (flow cytometry); type: cell-based, human; conditions: 5 μg/ml PHA, 0.01-10 μM, 48 hours
Method: as §1

Lag-3 = experiment: Expression of immune checkpoint Lag-3 on cell surface of PHA-activated PBMC (flow cytometry); type: cell-based, human; conditions: 5 μg/ml PHA, 0.01-10 μM, 48 hours
Method: as §1

IL-10 = experiment: Secretion level of IL-10 in PHA-activated PBMC culture supernatants; type: cell-based, human; conditions: 5 μg/ml PHA, 0.01-10 μM, 48 hours
Method: as §1

IL-6 = experiment: Secretion level of IL-6 in PHA-activated PBMC culture supernatants; type: cell-based, human; conditions: 5 μg/ml PHA, 0.01-10 μM, 48 hours
Method: as §1

TNF-α = experiment: Secretion level of TNF-α in PHA-activated PBMC culture supernatants; type: cell-based, human; conditions: 5 μg/ml PHA, 0.01-10 μM, 48 hours
Method: as §1

MNK1 = MNK1 (Homo sapiens, UniProt Q9BUB5); experiment: MNK biological enzyme assay (HTRF kinase assay), MNK1; type: biochemical; design: purchased ThermoFisher PV6023; conditions: 3 ng/ul MNK1, 1 μM STK1 peptide, 100 μM ATP
MNK1, sequence (Q9BUB5 whole entry): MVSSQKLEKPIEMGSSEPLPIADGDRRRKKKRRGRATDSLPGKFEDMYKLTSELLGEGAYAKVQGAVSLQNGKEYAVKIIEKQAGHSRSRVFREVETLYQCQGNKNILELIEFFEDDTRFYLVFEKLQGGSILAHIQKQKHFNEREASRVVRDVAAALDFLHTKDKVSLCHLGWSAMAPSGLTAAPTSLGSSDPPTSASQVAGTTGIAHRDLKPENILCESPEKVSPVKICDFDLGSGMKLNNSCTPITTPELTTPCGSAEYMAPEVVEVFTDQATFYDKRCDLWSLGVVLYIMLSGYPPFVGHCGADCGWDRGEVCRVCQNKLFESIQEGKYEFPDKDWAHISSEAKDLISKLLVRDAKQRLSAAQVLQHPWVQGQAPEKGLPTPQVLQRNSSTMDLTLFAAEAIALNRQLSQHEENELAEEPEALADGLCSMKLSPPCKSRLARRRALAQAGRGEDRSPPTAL
Method: (§2) A HTRF kinase assay kit (Cisbio, catalog number 62ST1PEB) was used to determine the MNK inhibitory activity of the compounds. All kinase reactions were performed in the reaction buffer (provided in the kit). The final MNK1 reaction involved 3 ng/ul recombinant MNK1 (ThermoFisher, PV6023), 1 μM MNK substrate peptide STK1 (provided in the kit), 100 μM ATP, and different concentrations of the inhibitory compounds of interest. The final MNK2 reaction involved 1 ng/μl recombinant MNK2 (ThermoFisher, PV5607), 1 μM MNK substrate peptide STK1 (provided in the kit), 100 μM ATP, and different concentrations of the inhibitory compounds of interest. The final DMSO concentration in each of the reactions was 1%.
(§3) The kinase reaction was performed in a final volume of 10 μl in a 384-well white flat-bottomed polystyrene plate. The MNK1/2 enzyme was pre-incubated with the compound and substrate peptide for 5 minutes, and then ATP was added thereto. After addition of ATP, the kinase reaction was incubated at 25° C. for 120 minutes or 60 minutes. The reaction was subsequently terminated by adding 5 μl of EU3+ substrate antibody detection reagent and 5 μl of XL665 detection reagent, and incubating for another 60 minutes. The luminescent signal was detected with an EnVision microplate reader counter (Perkin Elmer), and the signal from 10-point dilution series of the compounds was used to calculate the compound concentration (IC50) required to achieve 50% inhibition of enzyme activity.
(§4) In this respect, IC50 values which are less than 0.01 μM were marked as “+++”, which are from 0.01 to 0.1 μM were marked as “++”, and which are greater than 0.1 and up to 10.0 μM were marked as “+”, and NA meant “not detected”.

MNK2 = MNK2 (Homo sapiens, UniProt Q9HBH9); experiment: MNK biological enzyme assay (HTRF kinase assay), MNK2; type: biochemical; design: purchased ThermoFisher PV5607; conditions: 1 ng/μl MNK2, 1 μM STK1 peptide, 100 μM ATP
MNK2, sequence (Q9HBH9 whole entry): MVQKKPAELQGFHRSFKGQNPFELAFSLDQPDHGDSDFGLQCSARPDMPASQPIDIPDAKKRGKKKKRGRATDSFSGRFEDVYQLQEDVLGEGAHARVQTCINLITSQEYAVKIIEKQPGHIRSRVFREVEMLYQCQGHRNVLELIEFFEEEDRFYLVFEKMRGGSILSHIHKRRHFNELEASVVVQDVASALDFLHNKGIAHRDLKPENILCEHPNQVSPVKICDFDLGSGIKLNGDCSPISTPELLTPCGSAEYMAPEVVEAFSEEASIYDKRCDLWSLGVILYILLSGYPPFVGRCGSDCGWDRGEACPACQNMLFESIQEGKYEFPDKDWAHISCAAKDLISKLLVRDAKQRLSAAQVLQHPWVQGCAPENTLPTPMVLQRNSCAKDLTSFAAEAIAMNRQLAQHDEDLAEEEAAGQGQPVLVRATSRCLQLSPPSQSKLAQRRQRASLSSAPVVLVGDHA
Method: as §2, §3, §4

Phosphorylated eIF4E = experiment: Intracellular peIF4E signaling assay; type: cell-based; conditions: 2 h; two hours incubation at 37° C.; read-out: peIF4E signaling cell assay IC50
Method: Phosphorylated eIF4E was determined using CisBio peIF4E assay kit (CisBio, catalog number 64EF4PEG). The cells were plated in a 96-well cell culture plate in a volume of 90 μL, and the number of cells per well was 5*10^4. The compounds (10×) were subjected to 3-fold serial dilution, added to the cell plate in a volume of 10 μL with the final DMSO concentration being 1%, and incubated at 37° C. for two hours. The cell plate was centrifuged at 300 g for 5 minutes, and the cell supernatant was carefully removed. The cell plate was immediately added with 50 μL of cell lysis buffer […] and incubated at 25° C. with shaking for at least 30 minutes. After homogenization by pipetting, 16 μL of cell lysate was transferred from the 96-well cell culture plate to a 384-well small-volume microwell plate. According to the kit instruction, an antibody mixture solution was prepared with a detection buffer, and was added in a volume of 4 μL to the 384-well small-volume microwell plate containing the cell lysate. The plate was covered with a plate sealer, incubated overnight at 25° C., and was read for fluorescence emission at two different wavelengths (665 nm and 615 nm) on the EnVision microplate reader counter. The emission ratio was imported into a GraphPadPrism software to fit the compound concentration (IC50) required for 50% inhibition of enzyme activity.
In this respect, IC50 values which are less than 0.05 μM were marked as “+++”, which are from 0.05 to 1.0 μM were marked as “++”, and which are greater than 1.0 and up to 100 μM were marked as “+”, and NA meant “not detected”.

[1] = Pharmacokinetic study in rats; type: in vivo; conditions: male, SD, plasma, rat
Method: In the examples, rat pharmacokinetic tests were performed for compounds 2 and 26 to illustrate their pharmacokinetic properties in rats.
Formulation of Liquors of Compound 2: […]
Experimental Method for Pharmacokinetic Study in Rats
(§5) Six SD rats, male, weighing 180-220 g, fasting for 12 hours, were randomly divided into 2 groups, 3 in each group. The animals in group A were intragastrically administrated with the compound liquor at a dose of 10 mg/kg; the animals in group B were intravenously administrated with the compound liquor via tails at a dose of 3 mg/kg. Blank blood was harvested before administration; about 100 μL of venous blood was harvested at different time points after administration, placed in a test tube added with heparin and centrifuged, and about 50 μL of blood plasma was collected and stored at −20° C. for testing.
Formulation of Liquors of Compound 26: […]
Formulation of solution for intravenous administration: compound 26 was dissolved in a solution of 5% DMSO+10% Solutol HS15+85% (20% HP-(3-CD physiological saline).
Formulation of suspension for intragastric administration: compound 26 was dissolved in a solution of 5% DMSO+10% Solutol HS15+85% (20% HP-(3-CD physiological saline).
Administration dosage of compound 26: 1 mg/kg for intravenous injection, 3 mg/kg for intragastric administration.
as §5, with “of 3” for “of 10”, “of 1” for “of 3”

| IC50 (MNK1) [nM] | IC50 (MNK2) [nM] | IC50 (Phosphorylated eIF4E) [nM] | AUC(0-inf) ([1]; iv, 1 mg/kg) [ng·h/mL] | AUC(0-t) ([1]; iv, 1 mg/kg) [ng·h/mL] | clearance ([1]; iv, 1 mg/kg) [mL/min/kg] | half-life ([1]; iv, 1 mg/kg) [min] | Vd ([1]; iv, i.v., 1 mg/kg, read-out: Vz) [L/kg] | bioavailability ([1]; oral, p.o. 3 mg/kg vs i.v. 1 mg/kg) [%] | AUC(0-inf) ([1]; po, 3 mg/kg) [ng·h/mL] | AUC(0-t) ([1]; po, 3 mg/kg) [ng·h/mL] | Cmax ([1]; po, 3 mg/kg) [ng/mL] | Tmax ([1]; po, 3 mg/kg) [h] | half-life ([1]; po, 3 mg/kg) [min] | Structure (SMILES) | inhibition of PD-1 expression (PD-1) | inhibition of Tim-3 expression (Tim-3) | inhibition of Lag-3 expression (Lag-3) | inhibition of secretion of IL-10 (IL-10) | inhibition of secretion of IL-6 (IL-6) | inhibition of secretion of TNF-α (TNF-α) |
| --- | --- | --- | --- | --- | --- | --- | --- | --- | --- | --- | --- | --- | --- | --- | --- | --- | --- | --- | --- | --- |
| < 10 | < 10 |  |  |  |  |  |  |  |  |  |  |  |  | CC(=O)Nc1cc2c(cn1)Cc1c(C)c3n(c(=O)c1N2)C1(CCCCC1)NC3=O [Compound 21, 12(N-methyl-1,5-2,5,6,11-tetrahydro-1H-spiro[cyclohexane-1-imidazo[1,5-6]pyrido[3,4-b]naphthyridine1.6][8]′-yl)acetamide] | significantly inhibited | significantly inhibited | significantly inhibited | significantly inhibited | significantly inhibited | significantly inhibited |
| < 10 | < 10 | < 50 | 632 | 619 | 27.2 | 224 | 4.14 | 21.7 | 391 | 402 | 45.2 | 1.75 | 418 | Cc1c2c(c(=O)n3c1C(=O)NC31CCCCC1)Nc1cc(NC(=O)C3CC3)ncc1C2 [Compound 26] | significantly inhibited | significantly inhibited | significantly inhibited | significantly inhibited | significantly inhibited | significantly inhibited |

— US12152030B2 (NOVOSTAR PHARMACEUTICALS, LTD., priority 2019, dated 2024)
